Laboratory results from US6376540B1, “Furan nitrone compounds” (Centaur Pharmaceuticals, Inc., priority 1996, dated 2002).

How the values were obtained:
synthetic Aβ(1-40) = biological target: T1, synthetic Aβ(1-40) (Homo sapiens, UniProt P05067); test: Inhibition of Aβ(1-40) beta-pleated sheet formation (ThT fluorescence); format: biochemical; conditions: 10 μM compound, ThT 3 μM, PBS pH 6.0, 12 hours; for inhibition at 10 µM: read-out: inhibition of Aβ(1-40) beta-pleated sheet formation compared to the controls
T1 construct: 3 μL of Aβ(1-40)(3 μg) prepared with dH2O
T1 sequence (P05067 672-711 limits assumed): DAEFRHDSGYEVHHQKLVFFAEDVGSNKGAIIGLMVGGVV
Excerpt: The deposition of amyloid β-peptide (Aβ) is associated with the development of Alzheimer's disease. See, for example, G. G. Glenner et al. (1984) Biochem. Biophys. Res. Commun., 120:885-890; and R. E. Tanzi (1989) Ann. Med., 21:91-94. Accordingly, compounds which effectively disrupt the formation of Aβ(1-40) or Aβ(1-42) beta-pleated sheets are potentially useful for preventing and/or reversing such amyloid deposits. Thioflavin T (ThT) is known to rapidly associate with beta-pleated sheets, particularly the aggregated fibrils of synthetic Aβ(1-40). This association gives rise to a new excitation maximum at 440 nm and to enhanced emission at 490 nm.
The experiments were performed using a CytoFluor II fluorescence plate reader having the following parameters:
Into each well was aliquoted 95 μl of ThT (3 μM) prepared in PBS (pH 6.0), 2 μL of the compound to be tested (10 μM) prepared with 0.05% of methylcellulose in PBS (pH 6.0), and 3 μL of Aβ(1-40)(3 μg) prepared with dH2O (the compounds prepared in Examples 1, 3, 4, 5, 6, 7, 8, 9, 11 and 12 were tested). The fluorescence measurement began when the Aβ(1-40) was added and continued for a total of 12 hours. The percent inhibition of beta-pleated sheet formation was calculated from the relative fluorescence unit difference between aggregation in the presence and in the absence of the test compounds.

[1] = test system: primary neuronal/astrocyte cultures; test: Protection against Aβ(25-35)-induced neuronal cell loss; format: cell-based, Sprague Dawley rat; conditions: 100 μM test compound, 30 μM Aβ(25-35), 96 hours
Protocol: Patients with Alzheimer's disease are known to suffer a progressive loss of neuronal cells. See, for example, P. J. Whitehause et al., (1982) Science, 215:1237-1239. […] Sprague Dawley rat hippocampus of 18-day-gestation embryos was excised and then dissociated by trituration to prepare primary neuronal/astrocyte cultures. Cells (3×10^5) were plated on 35 mm poly-D-lysine-coated plates containing Eagle's minimum essential medium supplemented with 10% fetal bovine serum. After 3-5 hours, the original medium was removed and replaced with 1 mL of fresh medium. Cultures were maintained at 37° C. in a 5% CO2/95% air humidified incubator.
To the cells (7 DIV) was added 30 μM of Aβ(25-35) dissolved in dH2O (stored at −20° C.) and 100 μM of the test compound (i.e., a compound of Example 1, 3, 4, 5, 6, 7, 8, 12 or 13 above) in 1% methylcellulose. Controls were also conducted without the test compound. The percentage of morphologically viable neurons was determined counting the number of viable neurons after 96 hours treatment compared to the number of neurons before treatment in the same premarked culture regions (three regions/culture, n=6).

THP-1 cells = test: Reduction of β-amyloid-induced increased IL-1β release (ELISA); format: cell-based, human; conditions: 100 μM test compound with LPS and Aβ25-35, 48 hours
Protocol: THP-1 cells, a human monocyte cell line from American Type Culture Collection, were grown in RPMI-1640 medium plus 10% fetal bovine serum (FBS, not heat-inactivated) in T-flasks. The medium was changed every two days by spinning down (800 rpm, 5 minutes) the cells and added the same fresh medium. Alternatively, the cultures were maintained by the addition of fresh medium. The cultures were maintained at a cell concentration ranging from between 1×10^5 and 1×10^6 cells/mL. Because sera may contain unknown factors which can affect macrophage/monocyte IL-1 production, the FBS was reduced to 5% for 24 hours. The FBS was further reduced to 2% over two days prior to starting each experiment. The cells were collected by centrifugation and resuspended to 2% FBS. Cell numbers were calculated and cells were plated on 24-well plates (3×10^5 cells/0.6 mL/well). Cells were then treated with LPS (0.5 μg/ml or 0-10 μg/ml for LPS dose-response experiments) alone or in combination with Aβ peptides (5 μM or 0.05-5 μM for dose-response experiments). When determining the effect of the test compounds on cytokine release, 100 μM of the test compound was added with the LPS and Aβ25-35 and this mixture was incubated for 48 hours prior to performing ELISA.
IL-1β secretions into medium by LPS-stimulated THP-1 cells, in the presence or absence of amyloid peptides and a test compound, were assayed with a commercially available ELISA kit (R & D Systems). Briefly, a microtiter plate coated with a murine monoclonal antibody to human IL-1β was supplied by the manufacturer. Standards and samples were pipetted into the wells and any IL-1β present was bound by the immobilized antibody. Unbound proteins were washed away and a horseradish peroxidase-linked polyclonal antibody specific for IL-1β was added to the wells to “sandwich”the IL-1β bound in the initial step. […] Color development was stopped with 2 N sulfuric acid and the optical density of the standard and the test samples was measured at 450 nm. The amounts of IL-1β present in the samples were calculated based upon a standard curve. […]

[2] = Free radical trapping, DCF oxidation, ferrous iron system; format: biochemical; conditions: 100 μM test compound, 100 μM FeSO4, 50 μM DCF in MEM, 37° C., 2 hrs
Protocol: (§1) Dichlorofluorescein (DCF) is a compound that fluoresces when oxidized by reactive oxygen species (ROS), such as hydroxyl, peroxyl, or alkoxyl free radicals. Test compounds were evaluated for their ability to scavenge radicals by determining their capacity to prevent the DCF oxidation in a radical generating environment. Two radical generating systems were used: (i) ferrous iron and (ii) tert-butyl hydroperoxide. When ferrous iron is placed in normoxic solution, it autooxidizes to produce ROS in the form of hydroxyl radicals, superoxide anion free radicals, and hydrogen peroxide. Similarly, when tert-butyl hydroperoxide is placed in non-chelated media, trace metals catalyze its oxidation to yield alkoxy, peroxyl, and alkyl free radicals.
(§2) In this assay, either 100 μM FeSO4 or 25 μM tert-butyl hydroperoxide were mixed with 50 μM DCF and 100 μM of the test compound in MEM and the mixture was incubated at 37° C. for 2 hrs. The fluorescence wavelengths measured were 485 nm for excitation and 530 nm for emission. In these tests, N-isopropyl-α-(2-sulfofuran-5-yl)nitrone sodium salt (prepared in Example 1 above) reduced fluorescence by 20% in the Fe^+2 assay and by 13% in the tert-butyl hydroperoxide assay. In comparison, a known free radical trap, N-tert-butyl-α-phenylnitrone (PBN) reduced fluorescence by 48% in the Fe^+2 assay and by 9% in the tert-butyl hydroperoxide assay.

[3] = Free radical trapping, DCF oxidation, tert-butyl hydroperoxide system; format: biochemical; conditions: 100 μM test compound, 25 μM tert-butyl hydroperoxide, 50 μM DCF in MEM, 37° C., 2 hrs
Protocol: as §1, §2

CCCC[N+]([O-])=Cc1ccc(S(=O)(=O)O)o1 [Example 3, N-n-Butyl-α-(2-sulfofuran-5yl)nitrone]
inhibition of Aβ(1-40) beta-pleated sheet formation compared to the controls (synthetic Aβ(1-40)): did not significantly reduce

CC(C)(C)[N+]([O-])=Cc1ccc(S(=O)(=O)O)o1 [Example 4, N-tert-Butyl-α-(2-sulfofuran-5-yl)nitrone]
inhibition of Aβ(1-40) beta-pleated sheet formation compared to the controls (synthetic Aβ(1-40)): did not significantly reduce
reduction of Aβ(25-35)-induced neuronal cell loss compared to the controls [1]: did not significantly reduce

CCCCCC[N+]([O-])=Cc1ccc(S(=O)(=O)O)o1 [Example 5, N-n-Hexyl-α-(2-sulfofuran-5-yl)nitrone]
inhibition at 10 µM (synthetic Aβ(1-40)): 15 to 71%

O=S(=O)(O)c1ccc(C=[N+]([O-])C2CCCCC2)o1 [Example 6, N-Cyclohexyl-α-(2-sulfofuran-5-yl)nitrone]
inhibition at 10 µM (synthetic Aβ(1-40)): 15 to 71%

CC(C)(C)CC(C)(C)[N+]([O-])=Cc1ccc(S(=O)(=O)O)o1 [Example 7, N-tert-Octyl-α-(2-sulfofuran-5-yl)nitrone]
inhibition at 10 µM (synthetic Aβ(1-40)): 15 to 71%

O=S(=O)(O)c1ccc(C=[N+]([O-])Cc2ccccc2)o1 [Example 9, N-Benzyl-α-(2-sulfofuran-5-yl)nitrone]
inhibition at 10 µM (synthetic Aβ(1-40)): 15 to 71%

CC(C)[N+]([O-])=Cc1ccc(S(=O)(=O)N2CCOCC2)o1 [Example 11, N-Isopropyl-α-[2-(N-morpholinosulfonyl)furan-5-yl]nitrone]
reduction of the β-amyloid-induced increased release of interleukin-1β compared to the controls (THP-1 cells): did not significantly reduce

CCN(CC)S(=O)(=O)c1ccc(C=[N+]([O-])C(C)C)o1 [Example 12, N-Isopropyl-α-[2-(N,N-diethylsulfamoyl)furan-5-yl]nitrone]
inhibition at 10 µM (synthetic Aβ(1-40)): 15 to 71%

CC(C)[N+]([O-])=Cc1ccc(S(=O)(=O)N2CCN(C)CC2)o1 [Example 14, N-Isopropyl-α-[2-(N-4-methylpiperazin-1-ylsulfonyl)furan-5-yl]nitrone]
reduction of the β-amyloid-induced increased release of interleukin-1β compared to the controls (THP-1 cells): did not significantly reduce

CC(C)[N+]([O-])=Cc1ccc(S(=O)(=O)N2CCN(C)CC2)o1.Cl [Example 15, N-Isopropyl-α-[2-(N-4-methylpiperazin-1-ylsulfonyl)-furan-5-yl]nitrone Hydrochloride]
reduction of the β-amyloid-induced increased release of interleukin-1β compared to the controls (THP-1 cells): did not significantly reduce

CC(C)(C)[N+]([O-])=Cc1ccccc1 [PBN, N-tert-butyl-α-phenylnitrone, reference compound]
reduced fluorescence in the Fe^+2 assay [2]: 48%
reduced fluorescence in the tert-butyl hydroperoxide assay [3]: 9%

N-Adamantyl-α-(2-sulfofuran-5-yl)nitrone [Example 8]
inhibition of Aβ(1-40) beta-pleated sheet formation compared to the controls (synthetic Aβ(1-40)): did not significantly reduce
